Source: PubChem BioAssay AID248 (DTP/NCI, 2004)
Values joined by “and” are separate entries in the source; they are usually repeats but may differ in a detail not shown here. Equal values may be shown once. Inconclusive results and toxic doses are left out. Cut-off read from the data, not from the text of the source: active = T/C of 150% or more; inactive = T/C below 125%.

System: L1210 leukemia ip in BDF1 mice, survival T/C
Experiment: NCI In Vivo Anticancer Drug Screen. Data for tumor model L1210 Leukemia (intraperitoneal) in B6D2F1 (BDF1) mice
Conditions: endpoint: mean survival time, higher = longer survival
Procedure, shortened: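 Each compound was tested against a transplantable tumor grown in mice. The endpoint was survival, with treated animals benchmarked against vehicle controls as a simple ratio.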

[1] = dose: 100.0 mg/kg/injection, schedule: Q04DX003 (ip), vehicle: other
[2] = dose: 200.0 mg/kg/injection, schedule: Q04DX003 (ip), vehicle: other
[3] = dose: 100.0 mg/kg/injection, schedule: Q01DX001 (ip), vehicle: Klucel (hydroxypropylcellulose) (HPC)
[4] = dose: 100.0 mg/kg/injection, schedule: Q04DX003 (ip), vehicle: Klucel (hydroxypropylcellulose) (HPC)
[5] = dose: 200.0 mg/kg/injection, schedule: Q01DX001 (ip), vehicle: Klucel (hydroxypropylcellulose) (HPC)
[6] = dose: 200.0 mg/kg/injection, schedule: Q04DX003 (ip), vehicle: Klucel (hydroxypropylcellulose) (HPC)
[7] = dose: 400.0 mg/kg/injection, schedule: Q04DX003 (ip), vehicle: Klucel (hydroxypropylcellulose) (HPC)
[8] = dose: 100.0 mg/kg/injection, schedule: Q01DX001 (ip), vehicle: carboxymethylcellulose (CMC)
[9] = dose: 200.0 mg/kg/injection, schedule: Q01DX001 (ip), vehicle: carboxymethylcellulose (CMC)
[10] = dose: 400.0 mg/kg/injection, schedule: Q01DX001 (ip), vehicle: carboxymethylcellulose (CMC)
[11] = dose: 200.0 mg/kg/injection, schedule: Q04DX003 (ip), vehicle: saline with Tween-80
[12] = dose: 100.0 mg/kg/injection, schedule: Q01DX009 (ip), vehicle: Klucel (hydroxypropylcellulose) (HPC)
[13] = dose: 200.0 mg/kg/injection, schedule: Q01DX009 (ip), vehicle: Klucel (hydroxypropylcellulose) (HPC)
[14] = dose: 400.0 mg/kg/injection, schedule: Q01DX009 (ip), vehicle: Klucel (hydroxypropylcellulose) (HPC)
[15] = dose: 100.0 mg/kg/injection, schedule: Q01DX001 (ip), vehicle: saline

Measured: T/C

C#CCSC(=S)OCC
inactive: [1] 95 % of control | [2] 101 % of control

N#Cc1c2ccccc2c(=N)n2ccccc12
inactive: [3] 95 % of control | [4] 98 % of control | [5] 105 % of control | [6] 104 % of control | dose: 400.0 mg/kg/injection, schedule: Q01DX001 (ip), vehicle: Klucel (hydroxypropylcellulose) (HPC) 95 % of control | [7] 114 % of control

CCCCN(Cl)CCCC
inactive: dose: 100.0 mg/kg/injection, schedule: Q04DX002 (ip), vehicle: saline + alcohol 101 % of control

CCCCNc1nc(N)nc(N)c1N=Nc1ccc(Cl)cc1
inactive: [8] 101 % of control | [9] 96 % of control | [10] 98 % of control

C/C(=C\C(C)(C)c1ccccc1)c1ccccc1
inactive: dose: 50.0 mg/kg/injection, schedule: Q04DX003 (ip), vehicle: other 92 % of control | [1] 92 % of control | [2] 100 % of control

COC(=O)C1CC(C2c3ccccc3-c3ccccc32)CCC1N (stereo unspecified)
inactive: [11] 100 % of control

Cc1ccc(S(=O)(=O)Oc2ccc([N+](=O)[O-])cc2)cc1
inactive: [12] 103 % of control | [4] 97 % of control | [13] 97 % of control | [6] 94 % of control | [14] 102 % of control | [7] 100 % of control

Cc1ccc(S(=O)(=O)OCC2CC=CCC2COS(=O)(=O)c2ccc(C)cc2)cc1 (stereo unspecified)
inactive: [15] 88 % of control | dose: 200.0 mg/kg/injection, schedule: Q01DX001 (ip), vehicle: saline 92 % of control | dose: 400.0 mg/kg/injection, schedule: Q01DX001 (ip), vehicle: saline 88 % of control

Nc1nc[nH]c1-c1n[nH]c(=O)[nH]1
inactive: [3] 108 % of control | [5] 104 % of control

Nc1cc2c(cc1Br)-c1ccc([N+](=O)[O-])cc1/C2=N\O
inactive: [8] 113 % of control | [9] 103 % of control | [10] 97 % of control

C=CC(OC(C)=O)OC(C)=O
inactive: dose: 2.8 mg/kg/injection, schedule: Q01DX Z (ip), vehicle: carboxymethylcellulose (CMC) 94 % of control | dose: 4.2 mg/kg/injection, schedule: Q01DX Z (ip), vehicle: carboxymethylcellulose (CMC) 95 % of control | dose: 6.2 mg/kg/injection, schedule: Q01DX Z (ip), vehicle: carboxymethylcellulose (CMC) 93 % of control | dose: 6.25 mg/kg/injection, schedule: Q01DX009 (ip), vehicle: saline with Tween-80 91 % of control | dose: 6.25 mg/kg/injection, schedule: Q01DX Z (ip), vehicle: carboxymethylcellulose (CMC) 89 % of control | dose: 9.4 mg/kg/injection, schedule: Q01DX Z (ip), vehicle: carboxymethylcellulose (CMC) 98 % of control and 111 % of control | dose: 12.5 mg/kg/injection, schedule: Q01DX009 (ip), vehicle: saline with Tween-80 104 % of control | dose: 12.5 mg/kg/injection, schedule: Q04DX003 (ip), vehicle: saline with Tween-80 103 % of control | dose: 25.0 mg/kg/injection, schedule: Q01DX009 (ip), vehicle: saline with Tween-80 110 % of control | dose: 25.0 mg/kg/injection, schedule: Q04DX003 (ip), vehicle: saline with Tween-80 111 % of control

OC(Cc1ccncc1)(c1ccccc1)c1ccccc1
inactive: dose: 100.0 mg/kg/injection, schedule: Q04DX003 (ip), vehicle: saline with Tween-80 88 % of control | [11] 88 % of control | dose: 400.0 mg/kg/injection, schedule: Q04DX003 (ip), vehicle: saline with Tween-80 109 % of control

CCCCNC(C)(C)CCl
inactive: dose: 25.0 mg/kg/injection, schedule: Q01DX009 (ip), vehicle: saline 103 % of control | dose: 25.0 mg/kg/injection, schedule: Q04DX003 (ip), vehicle: water 110 % of control | dose: 50.0 mg/kg/injection, schedule: Q01DX009 (ip), vehicle: saline 102 % of control | dose: 50.0 mg/kg/injection, schedule: Q01DX009 (ip), vehicle: water 91 % of control | dose: 50.0 mg/kg/injection, schedule: Q04DX003 (ip), vehicle: water 116 % of control | [15] 104 % of control | dose: 100.0 mg/kg/injection, schedule: Q04DX003 (ip), vehicle: water 98 % of control and 102 % of control

COc1ccc(OC)c(NC(=S)N/N=C(\C)c2ccc(O)c(C)c2)c1
inactive: dose: 12.5 mg/kg/injection, schedule: Q04DX002 (ip), vehicle: Klucel (hydroxypropylcellulose) (HPC) 97 % of control | dose: 25.0 mg/kg/injection, schedule: Q04DX002 (ip), vehicle: Klucel (hydroxypropylcellulose) (HPC) 115 % of control

Cc1ccc(S(=O)(=O)CC(=O)c2ccccc2)cc1
inactive: [4] 100 % of control | [6] 107 % of control | [7] 102 % of control

Cc1c([N+](=O)[O-])c(C)c([N+](=O)[O-])c(C(C)(C)C)c1[N+](=O)[O-]
inactive: [12] 93 % of control | [4] 92 % of control | [13] 94 % of control | [6] 100 % of control | [14] 96 % of control | [7] 94 % of control

BrCC(Br)=C(Br)Br
inactive: dose: 6.0 mg/kg/injection, schedule: Q04DX003 (ip), vehicle: Klucel (hydroxypropylcellulose) (HPC) 105 % of control | dose: 12.0 mg/kg/injection, schedule: Q01DX001 (ip), vehicle: Klucel (hydroxypropylcellulose) (HPC) 88 % of control | dose: 12.0 mg/kg/injection, schedule: Q04DX003 (ip), vehicle: Klucel (hydroxypropylcellulose) (HPC) 91 % of control | dose: 25.0 mg/kg/injection, schedule: Q01DX001 (ip), vehicle: Klucel (hydroxypropylcellulose) (HPC) 97 % of control and 101 % of control | dose: 25.0 mg/kg/injection, schedule: Q04DX003 (ip), vehicle: Klucel (hydroxypropylcellulose) (HPC) 91 % of control | dose: 50.0 mg/kg/injection, schedule: Q01DX001 (ip), vehicle: Klucel (hydroxypropylcellulose) (HPC) 93 % of control and 90 % of control | [3] 97 % of control

Cc1ccccc1NC(=O)Nc1ccc(Nc2ccccc2)cc1
inactive: [12] 97 % of control | [13] 91 % of control | [14] 100 % of control
